Reference: patent publication US6441036B1 (priority 1998, dated 2002)

Legend:
[1] = Hepatic levels of triacylglycerol (Example 17); format: in vivo, Wistar rats; conditions: fed 6 days, no prefeeding; TTA 150 mg/kg/day, TTP 300 mg/kg/day
Procedure: Male Wistar rats had free access to water and rat maintenance chow. They were fed palmitic acid or fatty acid analogues suspended in 0.5% CMC for 6 days. In some experiments TTA or TTP were fed for 3 days before feeding both for 6 days. At the end of the experiment the rats were fasted overnight, killed, the liver removed and homogenized. Triacylglycerol was measured in the homogenate.

Salmonella typhimurium = assay: Test for mutagenic activity in Salmonella typhimurium strains; format: cell-based; conditions: 3-1000 mg/plate (TTA), 2-5000 mg/plate (TSA)
Excerpt: (§1) Tests for mutagenic activity have been performed by Covance Laboratories Limited, England. […] Furthermore, TTA was not mutagenic when tested in mouse lymphoma cells […] L5178Y.

Escherichia coli = assay: Test for mutagenic activity in Escherichia coli strains; format: cell-based; conditions: 3-1000 mg/plate (TTA), 2-5000 mg/plate (TSA)
Excerpt: as §1

[2] = system: mouse lymphoma cells, L5178Y; assay: Mutagenicity test in mouse lymphoma cells L5178Y; format: cell-based; conditions: concentration 2.5-50 mg/ml
Excerpt: as §1

[3] = Lipid lowering effect in normal Wistar rats (Example 4); format: in vivo; conditions: gavage once daily for 7 days; dose mg/day/kg body weight: TSA 15, EPA 1500, TTA 150
Procedure: Phospholipids were measured by the enzymatic method of bioMérieux, Marcy-l{grave over ( )}Etoile, France, Triacylglycerol by the Technicon Method no. SA4-0324L90, USA and Cholesterol by the Technicon Method no. SA4-0305L90, USA.
Male Wistar rats, weighing 180-200 g at the start of the experiment, were housed individually in metal wire cages in a room maintained at 12 h light-dark cycles and a constant temperature of 20±3° C. The animals were acclimatised for one week under these conditions before the start of the experiments.
TTA, TSA and eicosapentaenoic acid (EPA) were suspended in 0.5% (w/v) carboxymethyl cellulose (CMC). Six animals were used for each treatment, and a 0.5% CMC solution was administrated to the rats as control. After administration of the test compound, the rats were fasted for 12 hours and anaesthetised with haloethan. The EPA and the fatty acid derivatives were administered by gastric intubation (gavage) once daily for 7 days. Blood samples were collected by cardiac puncture, and lipid concentrations in plasma were determined as outlined in the method section.

[4] = system: cultured Chinese hamster ovary cells; assay: Chromosomal aberrations in cultured Chinese hamster ovary cells; conditions: doses tested 12-140 mg/ml
[5] = system: mitochondrial β-oxidation; assay: Effect of fatty acid analogues on mitochondrial β-oxidation in rat liver (Example 18); format: in vivo; conditions: [1-14C]-palmitoyl-L-carnitine as substrate
Procedure: Freshly isolated livers from individual old Zucker rats, were homogenised in ice-cold sucrose buffer (0.25 M sucrose, 10 mM HEPES (pH 7.4) and 2 mM EDTA). Post-nuclear and mitochondrial fractions were prepared using preparative differential centrifugation according to DeDuve et al. (De Duve, C., et al., Biochem. J., 60, 604-617 1955.) Modifications, purity and yield were as described earlier (Garras, A., et al., Biochim. Biophys. Acta, 1255, 154-160 1995.). Acid soluble products were measured in post-nuclear and mitochondrial enriched fractions, using [1-^14C]-palmitoyl-CoA and [1-^14C]-palmitoyl-L-carnitine (Radio-chemical Centre, Amersham, England) as substrates as described earlier (Willumsen, N., et al., J. Lipid Res., 34, 13-22 1993. Carnitine palmitoyltransferase-I and -II activities were measured in the post-nuclear and mitochondrial fractions essentially as described by Bremer (Bremer, J., Biochim. Biophys. Acta, 665, 628-631 1981.) and 3-hydroxy-3-methylglutharyl-CoA synthase was measured according to Clinkenbeard et al. (Clinkenbeard, K. D., et al., J. Biol. Chem, 250, 3108-3116 1975.) in the mitochondrial fractions.
Obese Zucker (fa/fa) rats were given a standard chow either with (n=6) or without (n=5) 0.15% TTA. Following 21 days of treatment, rats were killed by cervical dislocation and the livers were removed. […] Values are expressed as the mean±S.D.

Compound: CCCCCCCCCCCCCCSCCC(=O)O [reference compound]
- Hepatic TG (triacylglycerol) [1]: 95.4 ± 14.7 µmol/g

Compound: CCCCCCCCCCCCCC[Se]CC(=O)O [TSA, Tetradecylselenioacetic acid]
- Induction of mutations (Salmonella typhimurium): did not induce mutations
- Induction of mutations (Escherichia coli): did not induce mutations
- Mutagenicity [2]: not to be mutagenic
- Plasma lipids: cholesterol [3]: 20 % reduction of control
- Plasma lipids: triglycerides [3]: 25 % reduction of control
- Chromosomal aberrations [4]: no aberrations were induced

Compound: CCCCCCCCCCCCCCCC(=O)O [Palm, palmitic acid]
- Mitochondrial β-oxidation activity [5]: 0.47 ± 0.06 nmol/min/mg protein

Compound: CC/C=C\C/C=C\C/C=C\C/C=C\C/C=C\CCCC(=O)O [EPA, eicosapentaenoic acid, reference compound]
- Plasma lipids: cholesterol [3]: 18 % reduction of control
- Plasma lipids: triglycerides [3]: 20 % reduction of control
